Assay results from US20090093454A1, “Chemical Compounds” (priority 2005, published 2009).

test system: HIV-1; test: HIV infectivity assay (Table 2, strain not given); format: cell-based; details: Human immunodeficiency virus 1, read-out: Activity Level
Summary of the method: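 HOS cells expressing hCXCR4/hCCR5/hCD4 with HIV-LTR-luciferase, pre-treated 1 h with compound at 37 °C, then infected with HIV-1 Ba-L or IIIB (~2 million RLU/well) for 96 h. Infection read by Steady-Glo luciferase; cytotoxicity in uninfected cultures by CellTiter-Glo.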

Row | Structure (SMILES) | IC50 [nM]
1 | c1cnc2c(c1)CC[C@@H]1CCCN(Cc3cn4c(NC5CCNC5)cccc4n3)[C@H]21 (stereo partly drawn) [Example 109, 2-[(4aR,10bS)-3,4,4a,5,6,10b-hexahydro-1,10-phenanthrolin-1(2H)-ylmethyl]-N-3-pyrrolidinylimidazo[1,2-a]pyridin-5-amine] | 100 to 500
2 | N[C@@H]1CCN(c2cccc3nc(CN4CCC[C@H]5CCc6cccnc6[C@H]54)cn23)C1 [Example 110, (3R)-1-{2-[(4aR,10bS)-3,4,4a,5,6,10b-hexahydro-1,10-phenanthrolin-1(2H)-ylmethyl]imidazo[1,2-a]pyridin-5-yl}-3-pyrrolidinamine] | < 100
3 | C[C@H]1CCCN1c1cccc2nc(CN3CCC[C@H]4CCc5cccnc5[C@H]43)cn12 [Example 111, (4aR,10bS)-1-({5-[(2S)-2-methyl-1-pyrrolidinyl]imidazo[1,2-a]pyridin-2-yl}methyl)-1,2,3,4,4a,5,6,10b-octahydro-1,10-phenanthroline] | 100 to 500
4 | c1cnc2c(c1)CC[C@@H]1CCCN(Cc3cn4c(N[C@H]5CCCNC5)cccc4n3)[C@H]21 [Example 112, 2-[(4aR,10bS)-3,4,4a,5,6,10b-hexahydro-1,10-phenanthrolin-1(2H)-ylmethyl]-N-[(3S)-3-piperidinyl]imidazo[1,2-a]pyridin-5-amine] | < 100
5 | c1cnc2c(c1)CC[C@@H]1CCCN(Cc3cn4c(NC[C@@H]5CCCNC5)cccc4n3)[C@H]21 [Example 113, 2-[(4aR,10bS)-3,4,4a,5,6,10b-hexahydro-1,10-phenanthrolin-1(2H)-ylmethyl]-N-[(3R)-3-piperidinylmethyl]imidazo[1,2-a]pyridin-5-amine] | < 100
6 | CN1CCN(c2cccc3nc(CN4CCC[C@@H]5CCCc6cccnc6[C@H]54)cn23)CC1 [Example 123, (4aS,11bS)-1-{[5-(4-methyl-1-piperazinyl)imidazo[1,2-a]pyridin-2-yl]methyl}-2,3,4,4a,5,6,7,11b-octahydro-1H-pyrido[3′,2′:6,7]cyclohepta[1,2-b]pyridine] | < 100
7 | CN1CCN(c2cccc3nc(CN4CCC[C@H]5CCCc6cccnc6[C@H]54)cn23)CC1 [Example 124, (4aR,11bS)-1-{[5-(4-methyl-1-piperazinyl)imidazo[1,2-a]pyridin-2-yl]methyl}-2,3,4,4a,5,6,7,11b-octahydro-1H-pyrido[3′,2′:6,7]cyclohepta[1,2-b]pyridine] | < 100
8 | CN1CCN(c2cccc3nc(CN4CCC[C@H]5CCc6cccnc6[C@H]54)n(C)c23)CC1 [Example 134, (4aR,10bS)-1-{[1-methyl-7-(4-methyl-1-piperazinyl)-1H-benzimidazol-2-yl]methyl}-1,2,3,4,4a,5,6,10b-octahydro-1,10-phenanthroline] | < 100

test system: T-tropic HIV; test: not given; details: patients that are dual tropic or with only the T-tropic form of the virus; cited from earlier work

Row | Structure (SMILES) | T-tropic HIV viral load
9 | c1cc(CN2CCCNCCNCCCNCC2)ccc1CN1CCCNCCNCCCNCC1 [AMD-3100] | significantly reduce
